Source: US9072730B2, “Method of improving cognitive functions in individuals with down syndrome and/or alzheimer's disease” (The Board of Trustees of the Leland Stanford Junior …, priority 2009, dated 2015)
Entries after “also recorded” stand apart in the source; their conditions may differ.

Experiments:
[1] = Norepinephrine and L-DOPS determination in tissue by UV-HPLC; type: in vivo, mouse
Procedure: Mice were deeply anesthetized using sodium pentobarbital (200 mg/kg i.p.) and brains were extracted immediately. The right hippocampal region dissected out on ice, weighed, and frozen shortly after. The rest of the right hemisphere was also weighed and collected. For homogenization, 1 ml of ice-cold 0.05 M phosphoric acid (Sigma) with 10 μl of […] of 3,4-Dihydrxybenzylamine hydrobromide (DHBA; Sigma) used as an internal standard. The tissue samples were sonicated for 3 seconds on ice. The resulting homogenates were centrifuged at 15,000 g for 15 minutes at 4° C. The resulting supernatant was transferred to a conical tube containing 1 ml of 3M tris (pH: 8.6) with 90 mg acid-washed aluminum oxide (Sigma). The mixture was rotated at 4° C. overnight. The alumina was centrifuged for 10 seconds, and washed briefly with 6 mM tris (pH: 8.6) and 3 changes of water (HPLC grade). After final centrifugation, the resulting precipitate was mixed with 1.8 ml of 0.05M H3PO4 (Sigma, puriss>99%) for 30 minutes at 4° C. The solution was filtered with a 0.2 μm filter and used for UV-based HPLC. 4.5 months-old (N=4 pairs of 2N and Ts65Dn) and 18 months (2N; N=8 and Ts65Dn; N=6) were used for this study.
A UV-HPLC machine (Varian, Chicago) equipped with an auto sampler and 2 pumps was used for this study. The machine was connected to a Varian column (Pursuit PFP, 150 mm×4.6 mm, 5 μm, A3050150×046) optimized for catecholamine measurements in aqueous conditions. The mobile phase was consisted of 60% 0.1M citric acid (Sigma) and 40% 0.1M Na2HPO4 both in 0.3 mM HPLC-grade sodium octyl sulfate salt (Sigma) (7). The mobile phase was degassed using 0.2 μm filter and refreshed every week. The flow rate was set at 1.0 ml/min at room temperature and the detection was performed at 270 nm. To achieve maximum performance, the mobile phase was pumped at 0.1 ml/min flow the night before the experiment. The column was washed thoroughly with 50% methanol after each experiment. To calculate the amounts of catecholamines, the height of the peak generated by DHBA, NE, and L-DOPS were measured using Variant software. […]

Ts65Dn mice [2] = assay: Contextual and tone-cued fear conditioning test; type: in vivo, mouse
Procedure: Contextual and tone-cued fear conditioning tests were performed using the Fear Conditioning Video Tracking System (Med-Associates Inc., St. Albans, Vt.). To reduce the stress, each mouse was handled for 5 days. After that, the mice underwent three days of Training day, Tone-Cued in novel context testing day, and Contextual testing day. In the first day, mice went through the Training session. Prior to conditioning, each mice had 3 min to explore the Test Chamber (baseline activity and then they received five tone-shock pairings). The shock (0.5 mA, 50 Hz, 2 sec) delivered after 18 sec from the end of the tone (70 dB, 2 kHz, 20 sec). Therefore, an empty trace interval interposed between the tone and the shock in each conditional stimulus-unconditional stimulus pairing. On the second day (Tone-cued testing day), mice were placed in the novel context (new olfactory and visual cues) for 3 min and subsequently were presented three tone presentations (same as the Training Day) without any shocks. On the last day of the experiment, mice were placed in the context similar to the Training Day for 5 min without any tones or shocks. The effect of L-DOPS on fear conditioning was investigated by treating Ts65Dn mice and their controls 5 hours before the start of each test. The treated mice underwent three days of Training day, Cued testing day and Contextual testing day. L-DOPS was diluted (20 mg/ml) in 0.2M HCL containing 2 mg/ml ascorbic acid. The pH was neutralized with 10M NAOH just before the injection. To counter the peripheral effects of L-DOPS, S-(−) carbidopa was used. Carbidopa was diluted in the same solution (2.5 mg/ml) as L-DOPS. Two groups (10 pairs each) of 5-6-month-old male Ts65Dn and 2N mice were either injected with carbidopa (2.5 mg/ml) or a combination of 20 mg/ml L-DOPS and 2.5 mg/ml carbidopa (50 μl/g subcutaneously) five hours before the start in all 3 days of the experiment. Six-months-old 2N (CD=13, CD+L-DOpS=11) and Ts65Dn (CD=10, CD+L-DOPS=9) mice were used for this study. The effect of β1-partial agonist (xamoterol) on Ts65Dn mice and their controls […]. Xamoterol hemifumarate (Tocris Bioscience, Ellisville, Mich.) was freshly diluted in saline. Two groups of 9-month-old (19 2N and 15 Ts65Dn) mice were subcutaneously injected either with xamoterol (3 mg/kg) or saline (10 ml/kg) exactly […] before all 3 days of fear conditioning test. Nine-months-old 2N (saline=4, xamoterol=8), and Ts65Dn (saline=4, xamoterol=6) mice were used for this study. The data tested using one-way analysis of variance (ANOVA) between the genotypes. The significance of genotype and treatment effects was confirmed by a non-parametric Mann-Whitney U-tests.

Ts65Dn mice [3] = assay: Nesting behavior analysis; type: in vivo, mouse
Procedure: The nesting experiment was performed using 10 pairs of 6-month-old male Ts65Dn (CD=10, CD+L-DOPS=10) and 2N (CD=10, CD+L-DOPS=10) mice. The nesting behavior was analyzed in three different periods (sham, drug and no treatment): Each mouse was placed in individual mouse cages for 4 days. On day 5, each mouse was injected subcutaneously at 1 PM with 50 μl/g of (2.5 mg/ml) carbidopa (Sigma) and returned to their individual cages. The next day, mice were injected the same amount of carbidopa as the day before at 1 PM. At 6 PM, the mice were transferred to a rat cage and one nestlet was placed in each cage. Next morning, the nesting was scored by three investigators blind to the genotype. This was followed by weighing the remaining nestlets. Following the sham experiment, mice were returned to their individual mouse cages without any nestlets for 6 days. On day 7, the mice were injected subcutaneously (50 μl/g) of a combination of (20 mg/ml) L-DOPS and carbidopa (2.5 mg/ml) at 1 PM and were returned to their individual mouse cages. Next day the injection was repeated at 1 PM and at 6 PM the mice were transferred to clean rat cage with one nestlet. The quality and quantity of nesting was scored the morning after. The mice were kept in individual cages for two weeks to minimize the effects of L-DOPS treatment on nesting. […] The quality and quantity of nesting was scored the morning after.

[4] = based on the literature; cited from earlier work
[5] = subcutaneous administration; cited from earlier work
acute hippocampal slices = assay: Evoked field potentials in acute hippocampal slices (dentate gyrus); design: species or system mouse
Procedure: Three and 6-month-old 2N and Ts65Dn mice were anesthetized with isoflurane before decapitation. The brain was quickly removed and immersed for 2-3 min in ice-cold artificial CSF (ACSF) [containing (in mM): 119 NaCl, 2.5 Kcl, 2.5 CaCl2, 1.3 MgSO4, 1 NaH2PO4, 26 NaHCO3, and 10 glucose], osmolarity 310, continuously bubbled with 95% 02 and 5% CO2, pH 7.4. The HC was extracted and cut in ice-cold ACSF with a vibratome (Leica 1000; Leica, Nussloch, Germany) into 350-μm-thick transverse slices, which were allowed to recover in oxygenated ACSF at 32° C. for 30 min, and then at room temperature for an additional 1-10 hr before experimental recordings. Slices were transferred into the recording chamber and superfused with ACSF at a constant rate of 2.5 ml/min at a temperature of 32° C. Recording electrodes were made of borosilicate glass capillaries (1B150F, World Precision Instruments, Sarasota, Fla.) and were filled with 2M NaCl (resistance […]). Mono polar stimulating electrode was maid of Pt/Ir wires with diameter 25.4 μm (PTT0110, World Precision Instruments, Sarasota, Fla.) and had 100-μm-long exposed tip. The stimulating electrode was inserted under visual control perpendicular to the slice surface into the middle molecular layer (MML), and the recording electrode into the granule cell layer of the DG upper blade. The distance between the electrodes was 250-300 μm. Testing stimuli evoked field responses with population spike amplitudes 65-75% of maximum. The amplitude of the population spike was measured as follows: a line was drawn at the base of the population spike connecting the first and second peaks of the field response, a second line was drawn at the peak of the population spike (i.e., at the peak of the downward deflection), and at the peak of the spike, a line was drawn vertically between these two lines, thus giving the amplitude of the population spike. The magnitude of the fEPSP was measured as the initial slope of the linear part of the fEPSP, which occurred 0.1-1 ms after the presynaptic volley. […]

## N[C@H](C(=O)O)[C@H](O)c1ccc(O)c(O)c1 [L-DOPS, L-threo-3,4-dihydroxyphenylserine]
[1]; after L-DOPS 1 mg/g with carbidopa 0.125 mg/g
  NE levels in the HC of Ts65Dn mice relative to 2N mice: 96%
[1]; six hours after administration, 2N and Ts65Dn mice, L-DOPS 1 mg/g with carbidopa 0.125 mg/g
  L-DOPS levels in tissues: present in all tissues, including brain
[1]; six hours after administration, 2N vs Ts65Dn, p=0.4894
  L-DOPS tissue levels, difference between genotypes: no difference between genotypes
Ts65Dn mice [2]; 6-month-old Ts65Dn mice, 20 mg/ml L-DOPS + 2.5 mg/ml carbidopa, 50 μl/g s.c., 5 hours before each test, control carbidopa alone
  contextual memory / contextual learning (freezing on contextual day): significant improvement in contextual memory; also recorded: found to restore contextual learning; also recorded: able to alleviate cognitive failure; also recorded: contextual learning failure was reversed; also recorded: acted to restore contextual learning
Ts65Dn mice [2]; L-DOPS + carbidopa treated 2N vs Ts65Dn, One-way ANOVA p=0.5247
  difference in freezing between 2N and Ts65Dn mice in contextual test: restored fully the difference in freezing; also recorded: no significant difference between the two groups
Ts65Dn mice [2]; L-DOPS + carbidopa treated Ts65Dn mice
  freezing measured on a minute-by-minute basis in contextual test: increased freezing following the first minute
Ts65Dn mice [2]; L-DOPS treatment versus no treatment
  reduction of the deficiency in Ts65Dn mice: 80%
Ts65Dn mice [2]; after treatment with L-DOPS, without treatment 44% less
  how much less Ts65Dn mice remembered than their controls after treatment: 8%
Ts65Dn mice [3]; drug period: L-DOPS 20 mg/ml + carbidopa 2.5 mg/ml, 50 μl/g s.c., p=0.0245
  nesting behavior: improved nesting; also recorded: significant improvement in the nesting behavior
Ts65Dn mice [3]; no treatment (washout) period of two weeks, p=0.0121
  nesting behavior after cessation of treatment: again showed poor nesting behavior; also recorded: vanished 2 weeks later
[4]
  dose used safely in humans: up to 1 gram per day
[5]
  time to maximum brain NE levels: ≤ 5 h

## O=C(NCCNCC(O)COc1ccc(O)cc1)N1CCOCC1 (stereo not drawn) [xamoterol]
Ts65Dn mice [2]; 9-month-old Ts65Dn mice, xamoterol 3 mg/kg s.c. 1 hour before each test, control saline
  contextual learning / contextual discrimination (freezing on contextual day): restored failed contextual learning; also recorded: found to restore contextual learning; also recorded: contextual learning failure was reversed; also recorded: acted to restore contextual learning; also recorded: significant improvement; also recorded: significant restoration of contextual discrimination
Ts65Dn mice [2]; xamoterol treated 2N vs Ts65Dn, ANOVA F=0.392, p=0.844
  difference between 2N and Ts65Dn mice in percent of freezing on contextual day: no longer any differences were found

## CC(C)NCC(O)c1ccc(O)c(O)c1 (stereo not drawn) [ISO]
Acute hippocampal slices; 6-month-old mice, stimulation of middle molecular layer, recording in granule cell layer
  effect on slope of fEPSPs, Ts65Dn versus 2N: stronger effects on slope of fEPSPs in Ts65Dn than 2N mice
Acute hippocampal slices; ISO 10 μM, 10 min, slices of 6-month old Ts65Dn and age-matched 2N
  recorded response 30 min after application, Ts65Dn versus 2N: much stronger response in Ts65Dn than 2N mouse
Acute hippocampal slices; ISO 10 μM, 3- and 6-months-old 2N and Ts65Dn mice
  change in population spike amplitude of fEPSPs: significant increase in population spike amplitude
Acute hippocampal slices; ISO 10 μM, 3-month-old 2N mice
  duration of enhancement of population spike amplitude: at least 30 min
Acute hippocampal slices; ISO 10 μM, 6 months old mice
  duration of increase of population spike amplitude: > 1 h
Acute hippocampal slices; slices at age 3 months and 6 months, 2N and Ts65Dn mice
  slope and amplitude of excitatory postsynaptic potentials (EPSPs): increase in both the slope and amplitude
Acute hippocampal slices; slices at age 6 months
  EPSP responses in Ts65Dn slices compared with 2N: consistently more robust
